Results as given in patent US11690850B2, “Inhibitors of receptor interacting protein kinase I for the treatment of disease” (Board of Regents, The University of Texas System, priority 2019, dated 2023).

Assays:
RIPK1 = RIPK1 (Homo sapiens (Human), UniProt Q13546); assay: ADP-Glo Kinase Assay; type: biochemical; details: 5 nM RIPK1 protein, 50 μM ATP, 6 hr reaction, average value across multiple runs
Experimental: In order to measure RIPK1 activity the ADP-Glo kinase assay (Promega, Catalog #V7002) was used to measure the conversion of ATP to ADP. This enzymatic assay was performed in a 384-well white, Optiplate (Perkin Elmer, Catalog #6007299) with assay buffer consisting of 50 mM HEPES pH 7.5 (Gibco, Catalog #15630-080), 50 mM NaCl (Teknova, Catalog #S0252), 30 mM MgCl2 (Ambion, Catalog #AM9530G), 1 mM DTT (Santa Cruz Biotechnology, Catalog #sc-29089), 0.05% BSA (Sigma, Catalog #A3059-50G) and 0.02% CHAPS (Sigma, Catalog #C5070-5G). Stock solutions of the test compounds were prepared in 100% DMSO (Sigma, Catalog #D2650) and serially diluted 1:3 using 100% DMSO. Compounds were additionally diluted 1:40 in assay buffer, and 2 μL/well were transferred to the assay plate. 4 μL/well (final concentration of 5 nM) of RIPK1 protein (SignalChem, Catalog #R07-11G-05) diluted in assay buffer and added to the assay plate followed by a 10 minute preincutation at room temperature. 4 μL/well of ATP (Promega, Catalog #V7002) (final concentration of 50 μM) diluted in assay buffer were then added to the assay plate followed by a 6 hr reaction time. Final concentrations of RIPK1 and ATP refer to a 10 μL volume. Luminescence was measured using a BioTek Synergy™ NEO plate reader. IC50 values were calculated using a four-parameter logistic curve fit using Genedata Screener software. Results are shown below in Table 4, where the average value across multiple runs is given.

[1] = tested on: human monocytic cell line U937; assay: Human U937 Cellular Necroptosis Assay; type: cell-based; details: U-937; U937 cells stimulated with 25 ng/mL human TNFalpha and 25 μM z-VAD-FMK, 22 hr, viability by Cell Titer-Glo 2.0; average value across multiple runs; read-out: hU937 IC50
Experimental: Human U937 Cellular Necroptosis Assay
The human monocytic cell line U937 (CRL-1593.2) was purchased from ATCC. The cells were routinely maintained in RPMI-1640 Medium (Gibco, Catalog #11875-093) supplemented with 10% heat inactivated fetal bovine serum (Gibco, Catalog #16140-071), 100 units/mL penicillin and 100 μg/mL streptomycin (Gibco, Catalog #15140-122), in a humidified incubator (37° C., 5% CO2). For the assay, cells were resuspended in RPMI-1640 phenol red free Media (Gibco, Catalog #11835-030) supplemented with 10% fetal bovine serum (Sigma, Catalog #F2442), 100 units/mL penicillin and 100 ug/mL streptomycin. Cells were stimulated with 25 ng/mL human TNFalpha (Cell Sciences, Catalog #CSI15659B) and 25 μM z-VAD-FMK (R&D Systems, Catalog #FMK001) followed by seeding 5000 cells per well in a volume of 40 μL to a white, CulturPlate-384 (Perkin Elmer, Catalog #6007680). Stock solutions of the test compounds were prepared in 100% DMSO (Sigma, Catalog #D2650) and serially diluted 1:3 using 100% DMSO. Compounds were additionally diluted 1:40 in assay medium, and 10 μL/well was transferred to the plate. Following the compound addition the plate was incubated at 37° C. and 5% CO2 for 22 hr. After 22 hr, viability was assessed with the addition of 20 μL of Cell Titer-Glo 2.0 (Promega, Catalog #G9243). The tissue culture plate was shaken on an orbital shaker at 300 RPM for 15 minutes at room temperature in the dark. Luminescence was measured using a PerkinElmer Envision™ plate reader. IC50 values were calculated using a four-parameter logistic curve fit using Genedata Screener software. Results are shown below in Table 5, where the average value across multiple runs is given.

RIPK1, sequence (Q13546 1-327): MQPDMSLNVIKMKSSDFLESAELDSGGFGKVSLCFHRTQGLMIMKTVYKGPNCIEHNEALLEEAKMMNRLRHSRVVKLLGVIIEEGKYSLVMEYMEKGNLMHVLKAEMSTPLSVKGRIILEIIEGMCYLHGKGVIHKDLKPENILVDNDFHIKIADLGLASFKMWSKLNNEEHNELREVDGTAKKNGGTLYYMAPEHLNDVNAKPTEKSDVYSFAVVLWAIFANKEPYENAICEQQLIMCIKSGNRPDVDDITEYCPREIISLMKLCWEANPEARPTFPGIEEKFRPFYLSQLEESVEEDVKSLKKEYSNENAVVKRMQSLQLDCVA

Structure (SMILES) | IC50 (RIPK1) [nM] | IC50 [1] [nM]
Cc1cc(=O)c(C(=O)Nc2cccc(Cl)c2F)nn1-c1cc(F)ccc1F [Example 9, N-(3-chloro-2-fluorophenyl)-1-(2,5-difluorophenyl)-6-methyl-4-oxo-1,4-dihydropyridazine-3-carboxamide] | 78 | 170
Cc1c(Cl)c(=O)c(C(=O)NC2CCc3ccccc3NC2=O)nn1-c1ccccc1 (stereo not shown) [Example 39, 5-Chloro-6-methyl-4-oxo-N-(2-oxo-2,3,4,5-tetrahydro-1H-benzo[b]azepin-3-yl)-1-phenyl-1,4-dihydropyridazine-3-carboxamide] | 18 | 69
Cc1c(Cl)c(=O)c(C(=O)NC2CCc3cc(Cl)ccc3NC2=O)nn1-c1ccccc1 (stereo not shown) [Example 40, 5-Chloro-N-(7-chloro-2-oxo-2,3,4,5-tetrahydro-1H-benzo[b]azepin-3-yl)-6-methyl-4-oxo-1-phenyl-1,4-dihydropyridazine-3-carboxamide] | 36 | 47
Cc1c(Br)c(=O)c(C(=O)NC2CCc3ccccc3NC2=O)nn1-c1ccccc1 (stereo not shown) [Example 42, 5-Bromo-6-methyl-4-oxo-N-(2-oxo-2,3,4,5-tetrahydro-1H-benzo[b]azepin-3-yl)-1-phenyl-1,4-dihydropyridazine-3-carboxamide] | 36 | 141
Cc1cc(=O)c(C(=O)N[C@H]2COc3cccnc3NC2=O)nn1-c1ccccc1 [Example 63, (S)-6-methyl-4-oxo-N-(4-oxo-2,3,4,5-tetrahydropyrido[3,2-b][1,4]oxazepin-3-yl)-1-phenyl-1,4-dihydropyridazine-3-carboxamide] | – | 479
Cc1cc(=O)c(C(=O)NC2CCc3ccccc3-n3ccnc32)nn1-c1ccccc1 (stereo not shown) [Example 73, N-(5,6-dihydro-4H-benzo[f]imidazo[1,2-a]azepin-4-yl)-6-methyl-4-oxo-1-phenyl-1,4-dihydropyridazine-3-carboxamide] | – | 296
Cc1c(Cl)c(=O)c(C(=O)N[C@H]2COc3cccnc3N(C)C2=O)nn1-c1ccccc1 [Example 74, (S)-5-chloro-6-methyl-N-(5-methyl-4-oxo-2,3,4,5-tetrahydropyrido[3,2-b]-[1,4]oxazepin-3-yl)-4-oxo-1-phenyl-1,4-dihydropyridazine-3-carboxamide] | – | 58.2
Cc1ccc(-n2nc(C(=O)N[C@H]3COc4cccnc4N(C)C3=O)c(=O)cc2C)cc1F [Example 75, (S)-1-(3-fluoro-4-methylphenyl)-6-methyl-N-(5-methyl-4-oxo-2,3,4,5-tetrahydro-pyrido[3,2-b][1,4]oxazepin-3-yl)-4-oxo-1,4-dihydropyridazine-3-carboxamide] | – | 28.4
CCN1C(=O)[C@@H](NC(=O)c2nn(-c3ccccc3)c(C)cc2=O)COc2cccnc21 [Example 76, (S)-N-(5-ethyl-4-oxo-2,3,4,5-tetrahydro-pyrido[3,2-b][1,4]oxazepin-3-yl)-6-methyl-4-oxo-1-phenyl-1,4-dihydro-pyridazine-3-carboxamide] | – | 5590
Cc1ccc(-n2nc(C(=O)N[C@H]3COc4cccnc4N(C)C3=O)c(=O)cc2C)cc1 [Example 77, (S)-6-methyl-N-(5-methyl-4-oxo-2,3,4,5-tetrahydropyrido[3,2-b][1,4]oxazepin-3-yl)-4-oxo-1-(p-tolyl)-1,4-dihydro-pyridazine-3-carboxamide] | – | 26.5
Cc1cc(=O)c(C(=O)N[C@@H]2C(=O)N(C)c3ncccc3O[C@@H]2C)nn1-c1ccccc1 [Example 78, N-((2R,3S)-2,5-dimethyl-4-oxo-2,3,4,5-tetrahydropyrido[3,2-b]-[1,4]oxazepin-3-yl)-6-methyl-4-oxo-1-phenyl-1,4-dihydropyridazine-3-carboxamide] | – | 150
Cc1cc(=O)c(C(=O)NC2CCc3ccccc3NC2=O)nn1-c1cncc(F)c1 (stereo not shown) [Example 79, 1-(5-fluoropyridin-3-yl)-6-methyl-4-oxo-N-(2-oxo-2,3,4,5-tetrahydro-1H-benzo[b]azepin-3-yl)-1,4-dihydropyridazine-3-carboxamide] | – | 507
Cc1cc(=O)c(C(=O)N[C@@H]2C(=O)Nc3ncccc3O[C@@H]2C)nn1-c1ccccc1 [Example 80, 6-methyl-N-((2R,3S)-2-methyl-4-oxo-2,3,4,5-tetrahydropyrido[3,2-b]-[1,4]oxazepin-3-yl)-4-oxo-1-phenyl-1,4-dihydropyridazine-3-carboxamide] | – | 3710
COc1cc2c(cn1)N(C)C(=O)C(NC(=O)c1nn(-c3ccccc3)c(C)cc1=O)CC2 (stereo not shown) [Example 81, N-(7-methoxy-1-methyl-2-oxo-2,3,4,5-tetrahydro-1H-pyrido[3,4-b]azepin-3-yl)-6-methyl-4-oxo-1-phenyl-1,4-dihydropyridazine-3-carboxamide] | – | 788
Cc1ccc(-n2nc(C(=O)N[C@H]3COc4cccnc4N(C)C3=O)c(=O)c(Cl)c2C)cc1F [Example 82, (S)-5-chloro-1-(3-fluoro-4-methyl-phenyl)-6-methyl-N-(5-methyl-4-oxo-2,3,4,5-tetrahydropyrido[3,2-b]-[1,4]oxazepin-3-yl)-4-oxo-1,4-dihydropyridazine-3-carboxamide] | – | 56.4

Second part, led by results:

IC50 (RIPK1) [nM] | Structure (SMILES) | IC50 [1] [nM]
32 | Cc1cc(=O)c(C(=O)Nc2cccc(Cl)c2F)nn1-c1ccccc1 [Example 1, N-(3-chloro-2-fluorophenyl)-6-methyl-4-oxo-1-phenyl-1,4-dihydropyridazine-3-carboxamide] | 136
53 | Cc1cc(=O)c(C(=O)Nc2cccc(Cl)c2F)nn1-c1ccccc1F [Example 8, N-(3-chloro-2-fluorophenyl)-1-(2-fluorophenyl)-6-methyl-4-oxo-1,4-dihydropyridazine-3-carboxamide] | 172
52 | Cc1cc(=O)c(C(=O)Nc2cccc(Cl)c2F)nn1-c1cccc(Cl)c1 [Example 17, N-(3-chloro-2-fluorophenyl)-1-(3-chlorophenyl)-6-methyl-4-oxo-1,4-dihydropyridazine-3-carboxamide] | 631
489 | Cc1cc(=O)c(C(=O)Nc2c(Br)cccc2C(C)C)nn1-c1ccccc1 [Example 24, N-(2-bromo-6-isopropylphenyl)-6-methyl-4-oxo-1-phenyl-1,4-dihydropyridazine-3-carboxamide] | 2660
668 | Cc1cccc(C2CC2)c1NC(=O)c1nn(-c2ccccc2)c(C)cc1=O [Example 26, N-(2-cyclopropyl-6-methylphenyl)-6-methyl-4-oxo-1-phenyl-1,4-dihydropyridazine-3-carboxamide] | 3170
2250 | Cc1cc(=O)c(C(=O)Nc2cc(Cl)c3c(c2)NC(=O)C3)nn1-c1ccccc1 [Example 32, N-(4-chloro-2-oxoindolin-6-yl)-6-methyl-4-oxo-1-phenyl-1,4-dihydropyridazine-3-carboxamide] | 5820
2190 | Cc1cc(=O)c(C(=O)Nc2c3ccccc3nc3ccccc23)nn1-c1ccccc1 [Example 33, N-(acridin-9-yl)-6-methyl-4-oxo-1-phenyl-1,4-dihydropyridazine-3-carboxamide] | 8490
57 | Cc1cc(=O)c(C(=O)NC2CCc3ccccc3NC2=O)nn1-c1ccccc1 (stereo not shown) [Example 38, 6-Methyl-4-oxo-N-(2-oxo-2,3,4,5-tetrahydro-1H-benzo[b]azepin-3-yl)-1-phenyl-1,4-dihydropyridazine-3-carboxamide] | 82
35 | Cc1cc(=O)c(C(=O)NC2CCc3ccccc3N(C)C2=O)nn1-c1ccccc1 (stereo not shown) [Example 41, 6-methyl-N-(1-methyl-2-oxo-2,3,4,5-tetrahydro-1H-benzo[b]azepin-3-yl)-4-oxo-1-phenyl-1,4-dihydropyridazine-3-carboxamide] | 39
